Measurements from patent US20160375073A1, “COMPOSITION FOR TREATMENT OR PREVENTION OF OBESITY, CONTAINING WATER EXTRACTS OF FOMITELLA FRAXINEA” (POSTECH ACADEMY-INDUSTRY FOUNDATION, priority 2011, published 2016).

System: lipid absorption in the digestive tract
Experiment: Amount of lipid absorption from the digestive tract into blood (14C-triolein, plasma radioactivity)
Assay type: in vivo, mouse
Settings: male Balb/c mice, oral 14C-triolein, plasma 6 hours after administration, relative to untreated control = 1; FIG. 3
Protocol: Triolein (Amersham, 100 μCi/mL) radiolabeled with ^14C was mixed with 1% (w/v) sodium carboxylmethyl cellulose (CMC-Na) and 1% (v/v) Tween 80, and then 0.1 mL of the mixture was forcibly administered into each mouse through an oral zonde so that 1 μCi could be delivered to each mouse. Here, the mouse in the control group (an 8-week old male Balb/c with body weight of 25 g) was treated with 400 μg of Orlistat (20 mg/kg), which is used as an obesity treatment, and the mouse in the experimental group (an 8-week old male Balb/c with body weight of 25 g) was treated with 0.5 mL of the water extract (50 mg/mL) of Fomitella […] prepared in the Example after concentrating it into 0.1 mL. Six hours after the administration, blood samples were collected from the mice, and plasma was obtained by centrifuging the blood at […] at the rate of 14000 rpm, and the radioactive dose was measured by a liquid scintillator (Beta counter, Beckman LS1801). The control group was not treated with anything. The amount of lipid absorption was determined as a relative value by dividing the radioactive dose of each group into the radioactive dose of the control group, in which the radioactive dose of the control group was set at '1'. […] In particular, the result on the control group in FIG. 3 was obtained from the blood sample of a mouse not treated with any lipid absorption inhibitor.

CCCCCCCCCCC[C@@H](C[C@@H]1OC(=O)[C@H]1CCCCCC)OC(=O)[C@H](CC(C)C)NC=O [Orlistat, orlistat]
inhibitory effect upon lipid absorption: significant inhibitory effect upon lipid absorption
